What all share (experiment): growth of human tumour cells (NCI), 48 h
Assay [1] relates to EKVX.
Assay [2] relates to OVCAR-4.
Assay [3] has as its system OVCAR-3.
For assay [4], the system named is SN12C.
For assay [5], the system named is SW-620.
The test system of assay [6] is HCC 2998.
The subject of assay [7] is IGROV-1.
Assay [8] has as its system SNB-75.
Assay [9] deals with UACC-62.
For assay [10], the system named is NCI/ADR-RES.
The test system of assay [11] is HCT-15.
In assay [12] the test system is COLO 205.
Assay [13] relates to HT-29.
The test system of assay [14] is SK-MEL-5.
Assay [15] has as its system NCI-H226.
Assay [16] concerns MDA-MB-435.
For assay [17], the system named is M14.
Assay [18] relates to SF-539.
Assay [19] has as its system MCF7.

Experimental findings from ChEMBL document CHEMBL1201862, “PubChem BioAssay data set” (2004) are described below.

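Cells were grown in 96-well plates and exposed to each compound for 48 hours at five concentrations; endpoints were interpolated linearly between bracketing concentrations, or set to the highest concentration if not reached. Here, GI50 denotes the concentration required for 50% inhibition of growth.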 The source made the active and inactive calls. Rule as the data show it: active = GI50 up to about 1.1 µM and inactive = higher.

For the compound `C=C1[C@@H](OC(C)=O)/C=C/C2C3C(=O)[C@@](C)(OC(C)=O)[C@H]([C@H](OC(C)=O)[C@]4(O)[C@@H](C)C(=O)O[C@H]4[C@H]1Cl)[C@@]23C` (some centres undefined), the GI50 in [1], in assay [2], in [3], in [4], in [5] and in assay [6] was > 100 µM (inactive) in each case. The GI50 in assay [7] is > 100 µM (inactive); in assay [8] it was > 100 µM (inactive); in [9], > 100 µM (inactive); in assay [10], > 100 µM (inactive); in [11] it was more than 100 µM; in assay [12] it was > 100 µM (inactive). Further, the GI50 in [13], in assay [14], in assay [15], in [16] and in [17] was > 100 µM (inactive) in each case.
For the compound `Nc1sc2c(c1C(=O)c1ccc(Cl)c(Cl)c1)CCCC2`, the GI50 in [1] was 29.1 µM (inactive); in assay [2], 28.7 µM (inactive); in assay [3] it was 60.4 µM (inactive); in assay [4], > 100 µM (inactive); in [5], 35.7 µM (inactive); in assay [18] it was 71.8 µM (inactive). Also, the GI50 was 17.3 µM (inactive) in [6]; 12.1 µM (inactive) in assay [8]; 18.7 µM (inactive) in [19]; 92 µM (inactive) in assay [9]; 50.6 µM in assay [11]; 32.3 µM (inactive) in [12]. The GI50 is 36.4 µM (inactive) in assay [13], > 100 µM (inactive) in assay [15], 30.8 µM (inactive) in assay [16] and 44.1 µM (inactive) in [17].
Regarding `N[C@@H](CCC(=O)NC(Cc1ccccc1)C(=O)NCP(=O)(O)O)C(=O)O` (some centres undefined), the GI50 in [1], in assay [3], in assay [4], in assay [5], in assay [18] and in [6] was > 100 µM (inactive) throughout. Further, the GI50 was > 100 µM (inactive) in assay [7]; > 100 µM (inactive) in assay [19]; > 100 µM (inactive) in [9]; > 100 µM (inactive) in assay [10]; more than 100 µM in assay [11]; > 100 µM (inactive) in [12]. The GI50 in [13], in [14] and in assay [16] was > 100 µM (inactive) each time.
For the compound `O=C(Nc1sccc1S(=O)(=O)c1ccc(Cl)cc1)c1ccc(Cl)cc1Cl`, the GI50 in assay [1] is > 79.4 µM (inactive); in assay [2] it was > 93.8 µM (inactive); in assay [3] it was 28.2 µM (inactive); in assay [4], > 100 µM (inactive); in [5], > 100 µM (inactive); in assay [18] it was > 100 µM (inactive). The GI50 is > 100 µM (inactive) in assay [7]; > 100 µM (inactive) in assay [8]; 44.6 µM (inactive) in assay [19]; > 62.2 µM (inactive) in [9]; > 100 µM (inactive) in assay [10]; more than 100 µM in [11]. Besides, the GI50 is > 100 µM (inactive) in assay [12]; > 76.2 µM (inactive) in [13]; 47 µM (inactive) in [14]; > 100 µM (inactive) in assay [15]; 14.5 µM (inactive) in assay [16]; > 100 µM (inactive) in assay [17].
Consider `CCOC(=O)c1c(CN2CCCC2)n(-c2ccccc2)c2cc(Br)c(O)cc12`, for which the GI50 was 17 µM (inactive) in assay [1]; 14.3 µM (inactive) in assay [2]; 15.9 µM (inactive) in [3]; 16.4 µM (inactive) in [4]; 17.7 µM (inactive) in [5]; 16.8 µM (inactive) in [7]. For the same compound, the GI50 is 15.3 µM (inactive) in assay [8]; 21 µM (inactive) in assay [19]; 16.7 µM (inactive) in assay [9]; 22.4 µM (inactive) in [10]; 20.8 µM in [11]; 10.5 µM (inactive) in assay [12]. Moreover, the GI50 in [13] was 5.86 µM (inactive); in assay [14] it was 13.4 µM (inactive); in [16], 18 µM (inactive); in [17] it was 15.5 µM (inactive).
In the case of `c1ccc(C[P+]2(c3ccccc3)c3ccccc3-c3ccccc32)cc1`, the GI50 in [1], in assay [3], in [4], in [5], in assay [18] and in assay [6] was > 100 µM (inactive) in each case. Further, the GI50 in [7] is > 100 µM (inactive); in assay [8] it was > 100 µM (inactive); in [19], > 100 µM (inactive); in assay [9], > 100 µM (inactive); in assay [11], more than 100 µM; in assay [12], > 100 µM (inactive). The GI50 in [14], in [15], in assay [16] and in assay [17] was > 100 µM (inactive) each time.
On to `CC1CC(OP(=O)(OCc2ccccc2)OCc2ccccc2)[C@@H](OCc2ccccc2)C(OCc2ccccc2)C1OCc1ccccc1` (some centres undefined), for which the GI50 was 34.1 µM (inactive) in assay [1]; > 100 µM (inactive) in assay [2]; > 100 µM (inactive) in assay [4]; > 100 µM (inactive) in [5]; > 100 µM (inactive) in assay [18]; > 100 µM (inactive) in assay [6]. Besides, the GI50 is 64.7 µM (inactive) in assay [7]; 39.5 µM (inactive) in assay [8]; 40.2 µM (inactive) in assay [19]; > 100 µM (inactive) in [9]; > 100 µM (inactive) in [10]; more than 100 µM in assay [11]. Moreover, the GI50 in [12] was > 100 µM (inactive); in assay [13], 67.9 µM (inactive); in assay [14] it was 62.5 µM (inactive); in [15] it was > 100 µM (inactive); in assay [17], > 100 µM (inactive).
As to `NC(=O)C(=Cn1c(=S)[nH]c2ccc([N+](=O)[O-])cc21)C(N)=O`, the GI50 was 19.7 µM (inactive) in [1]; > 100 µM (inactive) in assay [2]; > 100 µM (inactive) in assay [3]; > 100 µM (inactive) in [4]; > 100 µM (inactive) in assay [5]; > 100 µM (inactive) in assay [18]. In addition, the GI50 in assay [6] is > 100 µM (inactive); in assay [7], > 100 µM (inactive); in assay [8] it was 97.9 µM (inactive); in assay [9] it was > 100 µM (inactive); in assay [10], > 100 µM (inactive); in [11], more than 100 µM. The GI50 in assay [12] is > 100 µM (inactive); in assay [13], > 100 µM (inactive); in assay [14], > 100 µM (inactive); in assay [15] it was 28.8 µM (inactive); in [16], > 100 µM (inactive); in [17], > 100 µM (inactive).
As for `CCC(=O)Nc1ccc(NC(C#N)c2cccc(Oc3ccccc3)c2)cc1` (centres undefined), the GI50 was 67.6 µM (inactive) in assay [1]; 54.1 µM (inactive) in assay [2]; 52.4 µM (inactive) in assay [3]; 51.8 µM (inactive) in assay [4]; 38.7 µM (inactive) in assay [5]; 32.9 µM (inactive) in assay [18]. Besides, the GI50 in assay [7] was 48.2 µM (inactive); in assay [8], 42 µM (inactive); in assay [19], 35.2 µM (inactive); in [9], 52 µM (inactive); in [10], 28.2 µM (inactive); in assay [11], 45 µM. For the same compound, the GI50 in assay [12] was 40.4 µM (inactive); in assay [13] it was 33.8 µM (inactive); in assay [14] it was 22.6 µM (inactive); in [15] it was 30.3 µM (inactive); in assay [16], 35.5 µM (inactive); in assay [17] it was 40.3 µM (inactive).
Turning to `N#CC(C#N)=NNc1ccc2cn[nH]c2c1`, the GI50 was 47.3 µM (inactive) in [1]; 30.7 µM (inactive) in assay [2]; 23.9 µM (inactive) in assay [3]; 40.6 µM (inactive) in assay [4]; 41.1 µM (inactive) in [5]; 70.8 µM (inactive) in assay [18]. The GI50 in [7] was > 100 µM (inactive); in assay [19], 31.1 µM (inactive); in assay [9], > 100 µM (inactive); in assay [10], > 100 µM (inactive); in [11], 83.2 µM; in assay [12] it was 25.6 µM (inactive). Moreover, the GI50 in [13] is 91.2 µM (inactive); in assay [14], 74.5 µM (inactive); in assay [15] it was > 100 µM (inactive); in assay [16] it was 34.3 µM (inactive); in assay [17], 35.6 µM (inactive).
On to `OCC(O)C(Cl)CCl` (centres undefined), for which the GI50 in assay [1], in assay [2], in assay [3], in assay [4], in [5] and in [18] was > 100 µM (inactive) throughout. Further, the GI50 in assay [6], in assay [7], in assay [8], in [19], in assay [9] and in [10] was > 100 µM (inactive) throughout. Besides, the GI50 in [11] was more than 100 µM; in assay [12] it was > 100 µM (inactive); in assay [13], > 100 µM (inactive); in [14], > 100 µM (inactive); in assay [15] it was > 100 µM (inactive); in assay [17], > 100 µM (inactive).
As for `CC(=N)OC1CC2CCC1(C)C2(C)C` (centres undefined), the GI50 in assay [1], in assay [2], in assay [3], in assay [4], in assay [5] and in assay [18] was > 100 µM (inactive) each time. For the same compound, the GI50 in [6] is > 100 µM (inactive); in assay [7], > 100 µM (inactive); in assay [8] it was > 100 µM (inactive); in assay [19], > 100 µM (inactive); in [9], > 100 µM (inactive); in assay [11], more than 100 µM. Further, the GI50 in assay [12], in assay [13], in assay [14], in assay [15], in assay [16] and in assay [17] was > 100 µM (inactive) in each case.
